Results reported in US20220062258A1, “Heterocyclic derivatives” (Merck Patent GmbH, priority 2019, published 2022).

Legend:
MetAP-2 [1] = target: T1, MetAP-2 (Homo sapiens, UniProt P50579); test: Biochemical activity testing of MetAP-2 (enzyme-coupled assay, Met-Ala-Ser substrate); set-up: N-terminal His tag human rec MetAP2 (prepared in house, AA 2-478, final concentration (fc) 123 nM); His tag (N); TEV cleavage site (N); made in house
Description: Biochemical Activity Testing of MetAP-2
MetAP-2 activity was determined by an enzyme-coupled assay using the tripeptide Met-Ala-Ser (MAS) as substrate and recombinant human MetAP-2 (His-Tev-MetAP-2, prepared at Merck). The released methionine is converted by L-amino acid oxidase (AAO) to oxidized Methionine and hydrogen peroxide is released. In a second step horse radish peroxidase catalyzes the oxidation of the leuko dye dianisidine to oxidized dianisidine using hydrogen peroxide as co-substrate. The produced dianisidine ox was detected photometrically as increase in absorbance at 450 nm. Met-AP2 activity was determined in a kinetic measurement mode. The release of one molecule methionine corresponds to the production of one molecule dianisidine ox. The MetAP2 enzymatic activity is directly corresponding to the increase in absorbance per time.
In detail, the assay was performed in 384 well microtiter plate (Greiner 78110 MTP, transparent) in a total reaction volume of 50 μl at 22° C. 0.35 μg of N-terminal His tag human rec MetAP2 (prepared in house, AA 2-478, final concentration (fc) 123 nM), 1 unit horse radish Peroxidase (Roche, Mannheim), 0.02 unit L-amino acid oxidase (Merck, Darmstadt), 0.6 mM dianisidine (Merck, Darmstadt, dissolved in 50 mM HCl, 10% DMSO) were incubated in the absence or presence of the test compound (10 dilution concentrations) in 100 mM Hepes, 50 mM NaCl, 50 μM MnCl2 at pH 7.0 for 15 min at 22° C. The reaction was started by the addition of 500 μM (fc) MAS peptide (Merck, Darmstadt). After mixing the first absorbance measurement was performed on an Envision multimode reader (Perkin-Elmer, Waltham) at wavelength of 450 nm. The reaction was incubated at 22° C. for additional 45 min and the second absorbance measurement was performed. The increase of absorbance per time was determined. The control value used was the inhibitor-free reaction with 0.5% DMSO (fc). As pharmacological inhibitor control Fumagillin (Merck, Darmstadt) in a final concentration of 5 μM was used. The inhibitory values (IC50) were determined using the program ASSAY ANALYZER® from GeneData (Basel, Switzerland).
Target sequence in this assay (P50579 2-478): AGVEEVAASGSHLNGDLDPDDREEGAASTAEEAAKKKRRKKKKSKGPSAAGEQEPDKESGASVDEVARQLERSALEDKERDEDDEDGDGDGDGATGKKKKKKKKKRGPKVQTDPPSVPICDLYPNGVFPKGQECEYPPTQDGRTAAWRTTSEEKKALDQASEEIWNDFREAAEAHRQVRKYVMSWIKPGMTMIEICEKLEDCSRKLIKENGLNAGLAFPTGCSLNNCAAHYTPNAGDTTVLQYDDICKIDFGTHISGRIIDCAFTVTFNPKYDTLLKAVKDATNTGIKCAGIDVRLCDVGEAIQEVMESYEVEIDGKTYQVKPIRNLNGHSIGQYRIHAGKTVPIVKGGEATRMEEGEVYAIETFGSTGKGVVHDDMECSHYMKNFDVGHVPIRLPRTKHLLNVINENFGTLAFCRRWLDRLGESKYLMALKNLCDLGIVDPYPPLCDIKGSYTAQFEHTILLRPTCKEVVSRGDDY

[2] = test system: HUVEC primary endothelial cells; test: HUVEC proliferation assay (CyQUANT Direct); type: cell-based; details: Homo sapiens, 72 h, 3 days incubation
Description: HUVEC Proliferation Assay
Proliferation of HUVEC primary endothelial cells was used as cell-based mechanistical assay.^25 Applying the CyQUANT@ Direct Cell Proliferation Assay (Invitrogen C35011) which is based on a cell-permeant fluorescent DNA-binding dye, DNA content is used as a direct measure for cell number. Pooled HUVEC cells (Promocell C-12203) are cultivated in the medium supplied by Promocell (Cat No C-22020) for maximum 4 passages. For the assay 500 cells/well are seeded into black 384-well culture plates with clear bottom in 70 μl culture medium and incubated for 6 hours at 37° C., 5% CO2. 10 μl prediluted test compounds are added and cells incubated for 3 days at 37° C., 5% CO2 before measurement of DNA content. CyQUANT detection reagent is prepared according to the manufacturers protocol, 20 μl/well added and incubated at 37° C., 5% CO2 for at least 1 h before measurement of fluorescence at Envision multimode reader (Perkin-Elmer, Waltham) with excitation 480 nm and emission 535 nm (bottom read mode). The assay is performed as dose response with 10 compound dilutions. Inhibitory values (IC50) were determined using the program ASSAY ANALYZER® from GeneData (Basel, Switzerland).

MetAP-2 [3] = target: T1, MetAP-2; test: Degradation of MetAP-2 in HCT116 cells (Western blot, MetAp2/GAPDH signal); type: cell-based; set-up: endogenous in cells; host or cells: HCT116; details: 0.1 μM, 24 hrs, HTC116 cells; <1 means degradation
Description: See scans below. […] The initial MetAP-2 degradation results were obtained after 24 h incubation of the compounds in three different concentrations (0.1; 1; 10 μM), cell lysis, SDS-PAGE separation, blotting and antibody aided detection.
Comparison of MetAP2 protein levels in HTC116 cells after compound treatments at different concentrations and time points. As control, DMSO was used and its values set as “1”. MetAp2 values <1 means degradation.
2. Exemplary Testing of the Compound
HCT116 cells were sown in 6-well plates. Pipette 1 mL fresh medium to every well and incubate for at least 1 h (37° C., 5% CO2, 95% rH).
Harvest and count cells in Vi-Cell. Equinr. 70198475 Adjust cell concentration to 0.35e^6 cells/mL and add 1 mL of cell suspension (total 0,35e^6 cells/well).
Incubate cells for 24 hours (37° C., 5% CO2, 95% rH)
HCT116: 24 h: ˜50% confluent before treatment
Compounds will be thawed the first time, stock: 10 mM; final concentration: 10 μM & 1 μM & 0.1 μM
Treatment with DMSO based solution with Digital Dispenser: HCT116 platte 2A1.jpg_meta.xml • create new dispensing protocol for compound • apply name of test compound and its stock concentration (in mM) for testing • 3×1:10 dilution series • final 0.3% DMSO, DMSO normalization for every well • shaking after compound/DMSO addition
Incubate cells for further 24 hours (37° C., 5% C02, 95% rH)
HCT116: 70-80% confluent before lysis • after incubation cells were lysed with RIPA lysis buffer including Halt™
all steps performed on ice or at 4° C. • aspirate supernatant from cells • wash cells twice with 2.0 mL ice cold PBS buffer • aspirate supernatant from cells after each washing step • lyse cells with 100 μL Ripa lysis buffer per well • scrape cells with cell scraper and transfer lysates to Eppendorf Cups • incubate for 15 min on ice • centrifuge […] at 13000×g and 4° C. • transfer supernatants to fresh Eppendorf cups • removal of 20 μL lysate for BCA assay • aliquot and freeze at −20° C.
Determination of protein concentration of lysates with BCA Protein Assay Kit. BSA supplied with the kit is 2 mg/mL.
Dilute the standard (Stock BSA concentration=2 mg/mL) in a 96 well plate: Samples were run 1:4. Dilute in lysing buffer, lysing buffer alone was run to determine the background from detergents in the assay.
BCA reagent: Dilute Reagent A and Reagent B in a 1:50 ratio. To 9.8 mL A add 200 μL B.
Assay Procedure: Pipette 5 μL/well of standard or samples to 96 wells (see plate layout). Samples were run in duplicate. Blanks=5 μL/well PBS or 5 μL/well lysing buffer. Add 100 μL/well of the prepared BCA reagent. Tap plate to mix or shake for 1-2 min on the Eppendorf mixer. Incubate at 37° C. for 30 min.
Read the OD at 562 nm. Plate was read on EnVision 2104 Multilabel Reader (Perkin Elmer, Equipment Number 70160330) last verification of instrument 17.08.2017 (once a year) (A25/531). AEH181012_BCA.csv
In EXCEL the duplicates were averaged and the average background PBS was subtracted for the standard curve.
A trend line was created, the intercept (b) was set at 0. The R^2 should be >0.950 for acceptable results. The lysate buffer blank was subtracted from the test values and the averaged, background-corrected O.D. values were used with the equation to calculate mg/ml and then were corrected for the dilution factor for the final mg/mL value. Only results from OD values within the range of the standard curve are acceptable. Values outside of the standard curve range are ignored. BCA AEH00350 Berechnung.xlsx
6. Sample Calculation and Preparation • thaw lysates of AEH00350 on ice • calculate sample volume for Western Blot loading 10 μg total protein/13 μL per slot: • dilute samples with lysis buffer and 10× reducing agent & 4×LDS buffer to 10 μg. • heat them at 70° C. for 10 min and 1000 rmp
Target sequence in this assay (P50579 whole entry, the tested form may be a part): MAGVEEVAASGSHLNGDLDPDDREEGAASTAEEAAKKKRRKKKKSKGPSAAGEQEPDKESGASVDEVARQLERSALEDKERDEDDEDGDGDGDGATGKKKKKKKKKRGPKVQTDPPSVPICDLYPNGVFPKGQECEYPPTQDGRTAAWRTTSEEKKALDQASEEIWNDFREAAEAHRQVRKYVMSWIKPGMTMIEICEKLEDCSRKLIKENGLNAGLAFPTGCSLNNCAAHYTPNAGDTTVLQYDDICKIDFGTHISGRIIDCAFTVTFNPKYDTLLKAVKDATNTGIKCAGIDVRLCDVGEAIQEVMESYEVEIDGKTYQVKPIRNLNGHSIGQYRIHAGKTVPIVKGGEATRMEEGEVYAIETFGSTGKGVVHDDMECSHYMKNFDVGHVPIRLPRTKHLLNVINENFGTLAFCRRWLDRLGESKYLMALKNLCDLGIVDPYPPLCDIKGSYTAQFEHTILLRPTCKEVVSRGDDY
7. […]

MetAP-2 [4] = target: T1, MetAP-2; test: as above; type: cell-based; set-up: endogenous in cells; host or cells: HCT116; details: 0.1 μM, 6 hrs, HTC116 cells; <1 means degradation
Target sequence in this assay (P50579 whole entry, the tested form may be a part): as above

Structure (SMILES)	IC50 (MetAP-2 [1])	IC50 [2]	Signal MetAp2/GAPDH normalized to untreated (DMSO) (MetAP-2 [3])	Signal MetAp2/GAPDH normalized to untreated (DMSO) (MetAP-2 [4])
Cc1ncsc1-c1ccc(CNC(=O)[C@@H]2C[C@@H](O)CN2C(=O)[C@@H](NC(=O)COCCOCCNC(=O)c2cc3cc(N4CCC(O)(C(=O)NCc5cc(F)cc(F)c5)C4=O)ccc3[nH]2)C(C)(C)C)cc1 (stereo partly drawn) [Compound A6, 5-[3-[(3,5-difluorophenyl)methylcarbamoyl]-3-hydroxy-2-oxo-pyrrolidin-1-yl]-N-[2-[2-[2-[[(1S)-1-[(2S,4R)-4-hydroxy-2-[[4-(4-methylthiazol-5-yl)phenyl]methylcarbamoyl]pyrrolidine-1-carbonyl]-2,2-dimethyl-propyl]amino]-2-oxoethoxy]ethoxy]ethyl]-1H-indole-2-carboxamide]	0.37 µM	30 µM	–	–
Cc1ncsc1-c1ccc(CNC(=O)[C@@H]2C[C@@H](O)CN2C(=O)[C@@H](NC(=O)COCCOCCOCCOCCOCCNC(=O)c2cc3cc(N4CCC(O)(C(=O)NCc5cc(F)cc(F)c5)C4=O)ccc3[nH]2)C(C)(C)C)cc1 (stereo partly drawn) [Compound A8, 5-[3-[(3,5-difluorophenyl)methylcarbamoyl]-3-hydroxy-2-oxo-pyrrolidin-1-yl]-N-[2-[2-[2-[2-[2-[2-[[(1S)-1-[(2S,4R)-4-hydroxy-2-[[4-(4-methylthiazol-5-yl)phenyl]-methylcarbamoyl]pyrrolidine-1-carbonyl]-2,2-dimethyl-propyl]amino]-2-oxoethoxy]ethoxy]ethoxy]ethoxy]ethoxy]ethyl]-1H-indole-2-carboxamide]	0.33 µM	30 µM	–	–
Cc1ncsc1-c1ccc(CNC(=O)[C@@H]2C[C@@H](O)CN2C(=O)[C@@H](NC(=O)CCCCCNC(=O)c2cc3cc(N4CC[C@@](O)(C(=O)NCc5cc(F)cc(F)c5)C4=O)ccc3[nH]2)C(C)(C)C)cc1 (mixture of isomers) [Compound A3, (3RS)—N-[(3,5-difluorophenyl)methyl]-3-hydroxy-1-{2-[(5-{[(2S)-1-[(2S,4R)-4-hydroxy-2-({[4-(4-methyl-1,3-thiazol-5-yl)phenyl]methyl}carbamoyl)pyrrolidin-1-yl]-3,3-dimethyl-1-oxobutan-2-yl]carbamoyl}pentyl)carbamoyl]-1H-indol-5-yl}-2-oxopyrrolidine-3-carboxamide]	0.55 µM	30 µM	–	–
O=C1CCC(N2C(=O)c3cccc(NCCOCCOCCNC(=O)c4cc5cc(N6CCC(O)(C(=O)NCc7cc(F)cc(F)c7)C6=O)ccc5[nH]4)c3C2=O)C(=O)N1 (centres unmarked) [Compound A5, 5-[3-[(3,5-difluorophenyl)methylcarbamoyl]-3-hydroxy-2-oxo-pyrrolidin-1-yl]-N-[2-[2-[2-[[2-(2,6-dioxo-3-piperidyl)-1,3-dioxo-isoindolin-4-yl]amino]ethoxy]-ethoxy]ethyl]-1-H-indole-2-carboxamide]	0.33 µM	5.8 µM	–	–
O=C1CCC(N2C(=O)c3ccc(NCCCCCNC(=O)c4cc5cc(N6CCC(O)(C(=O)NCc7cc(F)cc(F)c7)C6=O)ccc5[nH]4)cc3C2=O)C(=O)N1 (centres unmarked) [Compound A4, 5-[3-[(3,5-difluorophenyl)methylcarbamoyl]-3-hydroxy-2-oxo-pyrrolidin-1-yl]-N-[5-[[2-(2,6-dioxo-3-piperidyl)-1,3-dioxo-isoindolin-5-yl]amino]pentyl]-1H-indole-2-carboxamide]	0.48 µM	1.6 µM	–	–
Cc1ncsc1-c1ccc(CNC(=O)[C@@H]2C[C@@H](O)CN2C(=O)[C@@H](NC(=O)COCCOCCOCCOCCNC(=O)c2cc3cc(N4CCC(O)(C(=O)NCc5cc(F)cc(F)c5)C4=O)ccc3[nH]2)C(C)(C)C)cc1 (some centres unmarked) [Compound A7]	0.32 µM	7.3 µM	–	–
O=C1CCC(N2C(=O)c3cccc(NCCOCCOCCOCCOCCOCCNC(=O)c4cc5cc(N6CC(O)C(O)(C(=O)NCc7cc(F)cc(F)c7)C6=O)ccc5[nH]4)c3C2=O)C(=O)N1 (centres unmarked) [Compound A21, 5-[3-[(3,5-difluorophenyl)methylcarbamoyl]-3,4-dihydroxy-2-oxo-pyrrolidin-1-yl]-N-[2-[2-[2-[2-[2-[2-[[2-(2,6-dioxo-3-piperidyl)-1,3-dioxo-isoindolin-4-yl]amino]ethoxy]ethoxy]ethoxy]ethoxy]ethoxy]ethyl]-1H-indole-2-carboxamide]	–	–	1.2	1.3
